Measurements as given in patent US20110098214A1 (priority 2005, published 2011).
Values belong to the molecule of their own block, whether it stands above or below them. Square brackets hold non-standard residues; d marks the D form. Ends that are not written are not given here. Peptide text beside a SMILES is read from it.

What was measured:
[1] = system: mouse model for endotoxemia; conditions: in vivo
human IL-1β (Pepro Tech) = target: T1, human IL-1β (Pepro Tech) (human, UniProt P01584 117-269); assay: batch adsorption on peptide-immobilized silica beads, in an LPS solution (500 ng/mL LPS) containing IL-1β
T1 construct: Commercial protein added at 200 ng/mL to the LPS solution

Molecule: CC[C@H](C)[C@H](NC(=O)[C@H](CO)NC(=O)[C@H](CO)NC(=O)[C@@H](NC(=O)[C@H](CO)NC(=O)[C@H](CO)NC(=O)[C@H](CO)NC(=O)[C@H](Cc1ccc(O)cc1)NC(=O)[C@H](N)CCCCN)[C@@H](C)CC)C(=O)N[C@@H](CCCNC(=N)N)C(=O)NCC(=O)NCC(=O)N[C@@H](CC(C)C)C(=O)N[C@@H](CC(C)C)C(=O)N[C@@H](CC(C)C)C(=O)N[C@@H](CC(C)C)C(=O)N[C@@H](CC(C)C)C(=O)N[C@@H](CC(C)C)C(=O)N[C@@H](CC(C)C)C(=O)O [Wine Opener, kYSSSISSIRGGLLLLLLL] (H-[dK]YSSSISSIRGGLLLLLLL-OH; N-terminus and C-terminus assumed)
short term toxicity (weight) [1]: no short term toxicity which affected weight

binding result (human IL-1β (Pepro Tech)): no binding (tested: 200 ng/mL IL-1β)
B1: peptide Li5 C (peptide)
peptide: KNYSSSISSIHAC
modifications: also: immobilized on silica beads via C-terminal Cys thiol
notes: In the assay it was immobilized on propionyl chloride functionalized silica gel beads
